From patent publication US20230417736A1, “MONITORING MEMBRANE PROTEIN TRAFFICKING FOR DRUG DISCOVERY AND DRUG DEVELOPMENT” (UNIVERSITY OF HOUSTON SYSTEM, priority 2020, published 2023)

Target: T1, human β2AR (Homo sapiens, UniProt P07550)
T1 construct: expressed in transfected cells
Experiment: GPCR internalization assay using NanoBiT technology (β2AR-SmBiT with LgBiT-FYVE, early endosomes)
Type: cell-based
Conditions: for Internalization of GPCRs (luminescent signal) in the presence of endocytosis inhibitors: 10 μM of endocytosis inhibitors, cells pretreated, then ligand stimulation
Description: Applicant initially focused on studying the different internalization rates of class A G-protein coupled receptors (GPCRs). For this, Applicant first established a set of GPCRs involved in a wide variety of physiological functions and diseases such as Galanin (GAL receptors), Chemokine receptors (CCR), and β-adrenergic receptors ((βAR). Applicant devised a strategy to monitor how the GPCR bound to its corresponding ligand is removed from the cell surface, subsequently localized in early endosomes, and then finally recycled into the cell membrane. To accomplish this, Applicant covalently linked a small fragment of NLuc (SmBiT) to the C-terminal of the receptor, where a flexible linker is located between the two proteins (FIGS. 9-10). This linker was designed to be composed mainly of glycine and alanine amino acids to provide flexibility and not to alter the pharmacological properties of the native receptor (FIGS. 2A-2B).
FYVE domains bind phosphatidylinositol 3-phosphate from early endosomes, in a manner that is dependent on its metal ion coordination and basic amino acids. This FYVE domain inserts into cell membranes in a pH-dependent manner, where it is composed of two small beta hairpins (or zinc knuckles) and followed by an alpha helix. Additionally, the FYVE finger binds two zinc ions where this FYVE finger has eight potential zinc coordinating cysteine positions and is characterized by having basic amino acids around the cysteines. To achieve this, the gene of the FYVE domain of the human Endofin (residues from Q739 to K806) was synthesized and covalently attached by molecular cloning into a large fragment of NLuc (LgBiT) at the N-termini (FIGS. 2A-2B).
The ability to monitor internalization in response to ligand stimulation was assessed in HEK293 cells expressing the corresponding human receptor. In the case of GPCRs, the assay was performed using the corresponding endogenous ligands (i.e., epinephrine).
HEK293 cells were maintained in Dulbecco's modified Eagle's medium (DMEM) supplemented with 10% fetal bovine serum (FBS), 100 U/ml penicillin G, and […] streptomycin (Invitrogen; Carlsbad, CA, USA). At 1 day before transfection, the cells were seeded in 96-well plates at a density of 2.5×10^4 cells per well. […] After a 10 minute incubation, 25 μl substrate (furimazine) was added, and once every minute subsequent luminescence measurements were taken for 5-10 minutes for signal stabilization. A total of 10 μl of ligand, antibody, or viral suspension was then added to each well and luminescence measurements were recorded immediately and once every minute for 1-3 hours (Synergy 2 Multi-Mode Microplate Reader BioTek, Winooski, VT, USA).

T1 sequence (P07550 whole entry): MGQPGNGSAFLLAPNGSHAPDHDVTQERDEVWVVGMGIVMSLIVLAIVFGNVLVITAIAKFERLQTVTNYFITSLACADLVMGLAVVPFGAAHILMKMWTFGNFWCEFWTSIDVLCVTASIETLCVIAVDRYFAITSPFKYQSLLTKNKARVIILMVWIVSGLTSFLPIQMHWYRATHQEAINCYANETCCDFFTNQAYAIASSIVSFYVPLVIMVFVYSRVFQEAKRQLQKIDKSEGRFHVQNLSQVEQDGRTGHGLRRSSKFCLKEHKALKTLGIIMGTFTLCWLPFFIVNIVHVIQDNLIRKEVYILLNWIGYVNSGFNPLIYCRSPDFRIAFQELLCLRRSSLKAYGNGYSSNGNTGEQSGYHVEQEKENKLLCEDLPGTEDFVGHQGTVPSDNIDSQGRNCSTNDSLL

Row | SMILES | Internalization of GPCRs (luminescent signal) in the presence of endocytosis inhibitors | Blue luminescent signal (β2AR translocation into early endosomes) in response to the agonist (different concentrations of epinephrine)
1 | O=C(N/N=C/c1ccc(O)c(O)c1)c1cc2ccccc2cc1O [Dynasore] | inhibited | –
2 | CNC[C@H](O)c1ccc(O)c(O)c1 [epinephrine] | – | increased the blue luminescent signal in a concentration-dependent manner
3 | Cn1c(CNc2cccc(C(=O)NCc3ccccc3C(F)(F)F)c2)nnc1-c1ccncc1 [Cmpd101] | inhibited | –
4 | O=C1N=C(NS(=O)(=O)c2cccc3ccccc23)SC1=Cc1ccc(Br)cc1 [PiTStop] | inhibited | –
